{"source": "patent US12485132B2", "about": "“GPX4 inhibitors and senolytic compounds and uses thereof” (Rubedo Life Sciences, Inc., priority 2023, dated 2025)", "key": {"senescent A549 cells": {"test_system": "senescent A549 cells", "test": "Senescence assay: viability of senescent A549 cells", "format": "cell-based", "settings": "Homo sapiens, 24-72 hours incubation, viability by CellTiter-Glo or XTT, read-out: Absolute IC50 average A549_SEN IC50", "method": "(§1) Cells were maintained in DMEM media (high glucose, 4 mM L-glutamine, no sodium pyruvate) supplemented with 10% fetal bovine serum in a humidified incubator at 37° C. with 5% carbon dioxide. Senescence was induced via treatment with a sublethal concentration of chemotherapy (bleomycin, gemcitabine, doxorubicin, 5-fluorouridine), followed by a rest period without chemotherapy similarly to what is reported by others in the field (e.g., Aoshiba et al., 2003 Eur Respir J 22:436-443). Senescence was qualified by low EdU (5-ethynyl-2′-deoxyuridine) incorporation and high SA-β-Gal (senescence-associated beta-galactosidase) staining compared to proliferating untreated cells. Senescent cells were plated into 96-well plates at a density of 5-15,000 cells/well. The next day, compounds were added in duplicate across ten different concentrations spanning roughly four Log10 units. Cells were incubated with the compounds for 24-72 hours, at which point viability was quantified using CellTiter-Glo (Promega) or XTT (R&D Systems). The viability for treated cells was determined relative to untreated control cells. The log of the compound concentration vs. normalized mean viability was fit to a four parameters Hill function with variable slope. The bottom was constrained to be greater than zero. The X mean value for Y=50 was interpolated to determine the absolute IC50. The results in Table 2 indicate that many of the compounds are active in cells and can induce a dose dependent decrease in the viability of senescent HEPG2 and A549 cells."}, "senescent HEPG2 cells": {"test_system": "senescent HEPG2 cells", "test": "Senescence assay: viability of senescent HEPG2 cells", "format": "cell-based", "settings": "Homo sapiens, 24-72 hours incubation, viability by CellTiter-Glo or XTT, read-out: Absolute IC50 average HEPG2_SEN IC50", "method": "as §1"}}}
{"smiles": "C#CC(F)(F)[C@]1(O)CC[C@H]2[C@@H]3CCC4=C(Cl)C(=O)CCC4=C3[C@H](c3ccc(C4CC4)cc3)C[C@@]21C", "note": "[Compound 52, (8S,11S,13S,14S,17S)-4-chloro-11-(4-cyclopropylphenyl)-17-(1,1-difluoroprop-2-yn-1-yl)-17-hydroxy-13-methyl-1,2,6,7,8,11,12,13,14,15,16,17-dodecahydro-3H-cyclopenta[a]phenanthren-3-one]", "values": [{"measurement": "IC50", "setting": "senescent A549 cells", "result": "10 to 100", "unit": "nM"}]}
{"smiles": "C#CC(F)(F)[C@]1(O)CC[C@H]2[C@@H]3CCc4cc(OCCN5CCOCC5)ccc4C3[C@@H](c3ccc(S(=O)(=O)C4CC4)cc3)C[C@@]21C", "note": "(stereo partly drawn) [Compound 77, (8S,11S,13S,14S,17S)-11-(4-(cyclopropylsulfonyl)phenyl)-17-(1,1-difluoroprop-2-yn-1-yl)-13-methyl-3-(2-morpholinoethoxy)-7,8,9,11,12,13,14,15,16,17-decahydro-6H-cyclopenta[a]phenanthren-17-ol]", "values": [{"measurement": "IC50", "setting": "senescent A549 cells", "result": "≥ 1000", "unit": "nM"}]}
{"smiles": "C#CC(F)(F)[C@]1(O)CC[C@H]2[C@@H]3CCC4=CC(=O)CCC4=C3[C@@H](c3ccc(OCC4(C)COC4)cc3)C[C@@]21C", "note": "[Compound 72, (8S,11R,13S,14S,17S)-17-(1,1-difluoroprop-2-yn-1-yl)-17-hydroxy-13-methyl-11-(4-((3-methyloxetan-3-yl)methoxy)phenyl)-1,2,6,7,8,11,12,13,14,15,16,17-dodecahydro-3H-cyclopenta[a]phenanthren-3-one]", "values": [{"measurement": "IC50", "setting": "senescent A549 cells", "result": "10 to 100", "unit": "nM"}]}
{"smiles": "C#CC(F)(F)[C@]1(O)CC[C@H]2[C@@H]3CCC4=CC(=O)CCC4=C3[C@H](c3ccc(OCc4ccc(S(=O)(=O)C(F)(F)F)cc4)cc3)C[C@@]21C", "note": "[Compound 57, (8S,11S,13S,14S,17S)-17-(1,1-difluoroprop-2-yn-1-yl)-17-hydroxy-13-methyl-11-(4-((4-((trifluoromethyl)sulfonyl)benzyl)oxy)phenyl)-1,2,6,7,8,11,12,13,14,15,16,17-dodecahydro-3H-cyclopenta[a]phenanthren-3-one]", "values": [{"measurement": "IC50", "setting": "senescent A549 cells", "result": "10 to 100", "unit": "nM"}]}
{"smiles": "C#CC(F)(F)[C@]1(O)CC[C@H]2[C@@H]3CCC4=C/C(=N/OCCN)CCC4=C3[C@H](c3ccc(C4CC4)cc3)C[C@@]21C", "note": "[Compound 68, 2-((((8S,11S,13S,14S,17S,E)-11-(4-cyclopropylphenyl)-17-(1,1-difluoroprop-2-yn-1-yl)-17-hydroxy-13-methyl-1,2,6,7,8,11,12,13,14,15,16,17-dodecahydro-3H-cyclopenta[a]phenanthren-3-ylidene)amino)oxy)ethan-1-aminium chloride]", "values": [{"measurement": "IC50", "setting": "senescent A549 cells", "result": "10 to 100", "unit": "nM"}]}
{"smiles": "C#CC(F)(F)[C@]1(O)CC[C@H]2[C@@H]3CCC4=CC(=O)CCC4=C3[C@H](c3ccc(OS(=O)(=O)C(F)(F)F)cc3)C[C@@]21C", "note": "[Compound 63, 4-((8S,11S,13S,14S,17S)-17-(1,1-difluoroprop-2-yn-1-yl)-17-hydroxy-13-methyl-3-oxo-2,3,6,7,8,11,12,13,14,15,16,17-dodecahydro-1H-cyclopenta[a]phenanthren-11-yl)phenyl trifluoromethanesulfonate]", "values": [{"measurement": "IC50", "setting": "senescent A549 cells", "result": "10 to 100", "unit": "nM"}]}
{"smiles": "C#CC(F)(F)[C@]1(O)CC[C@H]2[C@@H]3CCC4=C/C(=N/OCCN5CCNCC5)CCC4=C3[C@@H](c3ccc(C4CC4)cc3)C[C@@]21C", "note": "[Compound 7, (8S,11R,13S,14S,17S,E)-11-(4-cyclopropylphenyl)-17-(1,1-difluoroprop-2-yn-1-yl)-17-hydroxy-13-methyl-1,2,6,7,8,11,12,13,14,15,16,17-dodecahydro-3H-cyclopenta[a]phenanthren-3-one O-(2-(piperazin-1-yl)ethyl)oxime]", "values": [{"measurement": "IC50", "setting": "senescent A549 cells", "result": "10 to 100", "unit": "nM"}]}
{"smiles": "C#CC(F)(F)[C@]1(O)CC[C@H]2[C@@H]3CCC4=C/C(=N/OCCOCCO)CCC4=C3[C@@H](c3ccc(C4CC4)cc3)C[C@@]21C", "note": "[Compound 12, (8S,11R,13S,14S,17S,E)-11-(4-cyclopropylphenyl)-17-(1,1-difluoroprop-2-yn-1-yl)-17-hydroxy-13-methyl-1,2,6,7,8,11,12,13,14,15,16,17-dodecahydro-3H-cyclopenta[a]phenanthren-3-one O-(2-(2-hydroxyethoxy)ethyl)oxime]", "values": [{"measurement": "IC50", "setting": "senescent HEPG2 cells", "result": "0.1 to 10", "unit": "nM"}]}
{"smiles": "C#CC(F)(F)[C@]1(O)CC[C@H]2[C@@H]3CCC4=CC(=NOCCOCCOCCOCCNC(=O)CCCCC5SCC6NC(=O)NC65)CCC4=C3[C@@H](c3ccc(C4CC4)cc3)C[C@@]21C", "note": "(some centres unmarked) [compound 21]", "values": [{"measurement": "IC50", "setting": "senescent HEPG2 cells", "result": "0.1 to 10", "unit": "nM"}]}
{"smiles": "C#CC(F)(F)[C@]1(O)CC[C@H]2[C@@H]3CCC4=C/C(=N/NC(=O)O[C@@H]5O[C@@H](C)[C@@H](O)[C@@H](O)[C@@H]5O)CCC4=C3[C@H](c3ccc(C4CC4)cc3)C[C@@]21C", "note": "[Compound 31, (2S,3S,4R,5S,6S)-3,4,5-trihydroxy-6-methyltetrahydro-2H-pyran-2-yl (E)-2-((8S,11S,13S,14S,17S)-11-(4-cyclopropylphenyl)-17-(1,1-difluoroprop-2-yn-1-yl)-17-hydroxy-13-methyl-1,2,6,7,8,11,12,13,14,15,16,17-dodecahydro-3H-cyclopenta[a]phenanthren-3-ylidene)hydrazine-1-carboxylate]", "values": [{"measurement": "IC50", "setting": "senescent HEPG2 cells", "result": "10 to 100", "unit": "nM"}]}
{"smiles": "C#CC(F)(F)[C@]1(O)CC[C@H]2[C@@H]3CCC4=C/C(=N/NC(=O)CO)CCC4=C3[C@H](c3ccc(C4CC4)cc3)C[C@@]21C", "note": "[Compound 37, N′-((8S,11S,13S,14S,17S,E)-11-(4-cyclopropylphenyl)-17-(1,1-difluoroprop-2-yn-1-yl)-17-hydroxy-13-methyl-1,2,6,7,8,11,12,13,14,15,16,17-dodecahydro-3H-cyclopenta[a]phenanthren-3-ylidene)-2-hydroxyacetohydrazide]", "values": [{"measurement": "IC50", "setting": "senescent HEPG2 cells", "result": "0.1 to 10", "unit": "nM"}]}
{"smiles": "C#CC(F)(F)[C@]1(O)CC[C@H]2[C@@H]3CCC4=C/C(=N\\O[C@H]5C[C@H](O)[C@H](O)[C@H](C)O5)CCC4=C3[C@H](c3ccc(C4CC4)cc3)C[C@@]21C", "note": "[Compound 6, (8S,11S,13S,14S,17S,Z)-11-(4-cyclopropylphenyl)-17-(1,1-difluoroprop-2-yn-1-yl)-17-hydroxy-13-methyl-1,2,6,7,8,11,12,13,14,15,16,17-dodecahydro-3H-cyclopenta[a]phenanthren-3-one O-((2S,4S,5S,6S)-4,5-dihydroxy-6-methyltetrahydro-2H-pyran-2-yl) oxime]", "values": [{"measurement": "IC50", "setting": "senescent HEPG2 cells", "result": "0.1 to 10", "unit": "nM"}]}
{"smiles": "C#CC(F)(F)[C@]1(O)CC[C@H]2[C@@H]3CCC4=C/C(=N/NC(=O)O[C@@H]5O[C@H](COC(C)=O)[C@H](OC(C)=O)[C@H](OC(C)=O)[C@H]5OC(C)=O)CCC4=C3[C@H](c3ccc(C4CC4)cc3)C[C@@]21C", "note": "[Compound 28, (2R,3S,4S,5R,6S)-2-(acetoxymethyl)-6-((2-((8S,11S,13S,14S,17S,E)-11-(4-cyclopropylphenyl)-17-(1,1-difluoroprop-2-yn-1-yl)-17-hydroxy-13-methyl-1,2,6,7,8,11,12,13,14,15,16,17-dodecahydro-3H-cyclopenta[a]phenanthren-3-ylidene)hydrazine-1-carbonyl)oxy)tetrahydro-2H-pyran-3,4,5-triyl triacetate]", "values": [{"measurement": "IC50", "setting": "senescent HEPG2 cells", "result": "10 to 100", "unit": "nM"}]}
{"smiles": "C#CC(F)(F)[C@]1(O)CC[C@H]2[C@@H]3CCC4=C/C(=N/NC(N)=O)CCC4=C3[C@H](c3ccc(C4CC4)cc3)C[C@@]21C", "note": "[Compound 41, (E)-2-((8S,11S,13S,14S,17S)-11-(4-cyclopropylphenyl)-17-(1,1-difluoroprop-2-yn-1-yl)-17-hydroxy-13-methyl-1,2,6,7,8,11,12,13,14,15,16,17-dodecahydro-3H-cyclopenta[a]phenanthren-3-ylidene)hydrazine-1-carboxamide]", "values": [{"measurement": "IC50", "setting": "senescent HEPG2 cells", "result": "0.1 to 10", "unit": "nM"}]}
